# Experimental data as given in patent US20240415914A1, “Water Dispersible Cannabinoid Compositions” (priority 2021, published 2024).
# Test: Stability of cannabinoid and Vitamin E components of Beverage 1 (AB White) stored at 8° C. and 21-25° C., LCMSMS over 570 days
# Type: physicochemical
# Conditions: for Stability in AB White, 8° C. (content by LCMSMS): beverage stored at 8° C.; for Stability in AB White, 21-25° C. (content by LCMSMS): beverage stored at 21-25° C.
# Method: The LCMSMS was calibrated for 0-1000 ng/ml cannabinoids with the same resin material used in the preparation of the concentrates. At each time period, 100 ml of beverage was diluted with 10 ml of methanol and injected into the LCMSMS for analysis.
smiles,measurement,setting,value
"CCCCCc1cc(O)c(C/C=C(\C)CCC=C(C)C)c(O)c1 [CBG, cannabigerol]","Stability in AB White, 8° C. (content by LCMSMS)",day 0,4.87 µg/mL
same,"Stability in AB White, 8° C. (content by LCMSMS)",day 1,4.74 µg/mL
same,"Stability in AB White, 8° C. (content by LCMSMS)",day 2,4.91 µg/mL
same,"Stability in AB White, 8° C. (content by LCMSMS)",day 3,4.74 µg/mL
same,"Stability in AB White, 8° C. (content by LCMSMS)",day 5,4.88 µg/mL
same,"Stability in AB White, 8° C. (content by LCMSMS)",day 8,4.86 µg/mL
same,"Stability in AB White, 8° C. (content by LCMSMS)",day 9,4.89 µg/mL
same,"Stability in AB White, 8° C. (content by LCMSMS)",day 10,4.77 µg/mL
same,"Stability in AB White, 8° C. (content by LCMSMS)",day 11,4.87 µg/mL
same,"Stability in AB White, 8° C. (content by LCMSMS)",day 12,4.87 µg/mL
same,"Stability in AB White, 8° C. (content by LCMSMS)",day 15,4.81 µg/mL
same,"Stability in AB White, 8° C. (content by LCMSMS)",day 16,4.84 µg/mL
same,"Stability in AB White, 8° C. (content by LCMSMS)",day 17,4.78 µg/mL
same,"Stability in AB White, 8° C. (content by LCMSMS)",day 18,4.81 µg/mL
same,"Stability in AB White, 8° C. (content by LCMSMS)",day 19,4.83 µg/mL
same,"Stability in AB White, 8° C. (content by LCMSMS)",day 22,4.75 µg/mL
same,"Stability in AB White, 8° C. (content by LCMSMS)",day 23,4.89 µg/mL
same,"Stability in AB White, 8° C. (content by LCMSMS)",day 24,4.83 µg/mL
same,"Stability in AB White, 8° C. (content by LCMSMS)",day 25,4.89 µg/mL
same,"Stability in AB White, 8° C. (content by LCMSMS)",day 26,4.77 µg/mL
same,"Stability in AB White, 8° C. (content by LCMSMS)",day 29,4.91 µg/mL
same,"Stability in AB White, 8° C. (content by LCMSMS)",day 30,4.79 µg/mL
same,"Stability in AB White, 8° C. (content by LCMSMS)",day 60,4.68 µg/mL
same,"Stability in AB White, 8° C. (content by LCMSMS)",day 90,4.66 µg/mL
same,"Stability in AB White, 8° C. (content by LCMSMS)",day 120,4.89 µg/mL
same,"Stability in AB White, 8° C. (content by LCMSMS)",day 150,4.83 µg/mL
same,"Stability in AB White, 8° C. (content by LCMSMS)",day 180,4.71 µg/mL
same,"Stability in AB White, 8° C. (content by LCMSMS)",day 210,4.73 µg/mL
same,"Stability in AB White, 8° C. (content by LCMSMS)",day 240,4.69 µg/mL
same,"Stability in AB White, 8° C. (content by LCMSMS)",day 270,4.72 µg/mL
same,"Stability in AB White, 8° C. (content by LCMSMS)",day 300,4.74 µg/mL
same,"Stability in AB White, 8° C. (content by LCMSMS)",day 330,4.69 µg/mL
same,"Stability in AB White, 8° C. (content by LCMSMS)",day 360,4.66 µg/mL
same,"Stability in AB White, 8° C. (content by LCMSMS)",day 390,4.68 µg/mL
same,"Stability in AB White, 8° C. (content by LCMSMS)",day 420,4.66 µg/mL
same,"Stability in AB White, 8° C. (content by LCMSMS)",day 450,4.68 µg/mL
same,"Stability in AB White, 8° C. (content by LCMSMS)",day 480,4.64 µg/mL
same,"Stability in AB White, 8° C. (content by LCMSMS)",day 510,4.49 µg/mL
same,"Stability in AB White, 8° C. (content by LCMSMS)",day 540,4.53 µg/mL
same,"Stability in AB White, 8° C. (content by LCMSMS)",day 570,4.46 µg/mL
same,"Stability in AB White, 21-25° C. (content by LCMSMS)",day 0,4.87 µg/mL
same,"Stability in AB White, 21-25° C. (content by LCMSMS)",day 1,4.73 µg/mL
same,"Stability in AB White, 21-25° C. (content by LCMSMS)",day 2,4.72 µg/mL
same,"Stability in AB White, 21-25° C. (content by LCMSMS)",day 3,4.75 µg/mL
same,"Stability in AB White, 21-25° C. (content by LCMSMS)",day 5,4.89 µg/mL
same,"Stability in AB White, 21-25° C. (content by LCMSMS)",day 8,4.90 µg/mL
same,"Stability in AB White, 21-25° C. (content by LCMSMS)",day 9,4.79 µg/mL
same,"Stability in AB White, 21-25° C. (content by LCMSMS)",day 10,4.68 µg/mL
same,"Stability in AB White, 21-25° C. (content by LCMSMS)",day 11,4.74 µg/mL
same,"Stability in AB White, 21-25° C. (content by LCMSMS)",day 12,4.88 µg/mL
same,"Stability in AB White, 21-25° C. (content by LCMSMS)",day 15,4.87 µg/mL
same,"Stability in AB White, 21-25° C. (content by LCMSMS)",day 16,4.80 µg/mL
same,"Stability in AB White, 21-25° C. (content by LCMSMS)",day 17,4.80 µg/mL
same,"Stability in AB White, 21-25° C. (content by LCMSMS)",day 18,4.72 µg/mL
same,"Stability in AB White, 21-25° C. (content by LCMSMS)",day 19,4.68 µg/mL
same,"Stability in AB White, 21-25° C. (content by LCMSMS)",day 22,4.68 µg/mL
same,"Stability in AB White, 21-25° C. (content by LCMSMS)",day 23,4.85 µg/mL
same,"Stability in AB White, 21-25° C. (content by LCMSMS)",day 24,4.80 µg/mL
same,"Stability in AB White, 21-25° C. (content by LCMSMS)",day 25,4.86 µg/mL
same,"Stability in AB White, 21-25° C. (content by LCMSMS)",day 26,4.78 µg/mL
same,"Stability in AB White, 21-25° C. (content by LCMSMS)",day 29,4.76 µg/mL
same,"Stability in AB White, 21-25° C. (content by LCMSMS)",day 30,4.73 µg/mL
same,"Stability in AB White, 21-25° C. (content by LCMSMS)",day 60,4.83 µg/mL
same,"Stability in AB White, 21-25° C. (content by LCMSMS)",day 90,4.65 µg/mL
same,"Stability in AB White, 21-25° C. (content by LCMSMS)",day 120,4.59 µg/mL
same,"Stability in AB White, 21-25° C. (content by LCMSMS)",day 150,4.63 µg/mL
same,"Stability in AB White, 21-25° C. (content by LCMSMS)",day 180,4.79 µg/mL
same,"Stability in AB White, 21-25° C. (content by LCMSMS)",day 210,4.75 µg/mL
same,"Stability in AB White, 21-25° C. (content by LCMSMS)",day 240,4.79 µg/mL
same,"Stability in AB White, 21-25° C. (content by LCMSMS)",day 270,4.62 µg/mL
same,"Stability in AB White, 21-25° C. (content by LCMSMS)",day 300,4.67 µg/mL
same,"Stability in AB White, 21-25° C. (content by LCMSMS)",day 330,4.71 µg/mL
same,"Stability in AB White, 21-25° C. (content by LCMSMS)",day 360,4.69 µg/mL
same,"Stability in AB White, 21-25° C. (content by LCMSMS)",day 390,4.70 µg/mL
same,"Stability in AB White, 21-25° C. (content by LCMSMS)",day 420,4.72 µg/mL
same,"Stability in AB White, 21-25° C. (content by LCMSMS)",day 450,4.73 µg/mL
same,"Stability in AB White, 21-25° C. (content by LCMSMS)",day 480,4.46 µg/mL
same,"Stability in AB White, 21-25° C. (content by LCMSMS)",day 510,4.51 µg/mL
same,"Stability in AB White, 21-25° C. (content by LCMSMS)",day 540,4.48 µg/mL
same,"Stability in AB White, 21-25° C. (content by LCMSMS)",day 570,4.47 µg/mL
